Values quoted from earlier work in patent US20260076921A1, “Transdermal Pharmaceutical Formulations for the Treatment of Multiple Sclerosis” (Pike Therapeutics Inc., priority 2020, published 2026).
pKi: −log10 of the molar value. Several values for one entry are separate records, joined by “and”; a condition that tells them apart may be missing. Identical values can stand only once.

Columns and labels:
[1] = 6.2 mg/day dose
[2] = literature ranges
[3] = biological target: CB1

| Compound | effect on knee-joint swelling [1] | Oral bioavailability [2] | pKi [3] |
| --- | --- | --- | --- |
| C=C(C)[C@@H]1CCC(C)=C[C@H]1c1c(O)cc(CCCCC)cc1O [CBD, 2-[(1R,6R)-6-isopropenyl-3-methylcyclohex-2-en-1-yl]-5-pentylbenzene-1,3-diol] | very effective to reduce knee-joint swelling | 13-19% and 5-6% |  |
| CCCCCn1cc(C(=O)c2ccc(Cl)c3ccccc23)c2ccccc21 [JWH-398] |  |  | 8.64 |
| CCCCCn1cc(C(=O)c2cccc3cccc(Br)c23)c2ccccc21 [JWH-424] |  |  | 7.68 |
| CCCCC/C=C\C/C=C\C/C=C\C/C=C\CCCC(=O)N[C@H](C)CO [Methanandamide] |  |  | 7.75 |
